Paper PMC4042638 (The Journal of Experimental Medicine, 2014)

Molecular target: Aβ–fibrinogen interaction (Homo sapiens, UniProt P05067)
Assay: AlphaLISA
Assay type: binding

Aβ–fibrinogen interaction, sequence (P05067 672-713): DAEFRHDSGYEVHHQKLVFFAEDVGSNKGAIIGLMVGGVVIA

## CSc1ccc(/C=C2/C(C)=C(CC(=O)O)c3cc(F)ccc32)cc1 [sulindac sulfide]
  Inhibition of the Aβ–fibrinogen interaction in AlphaLISA (in words): no effect
